Measurements: patent publication US10100064B2, “Purine inhibitors of human phosphatidylinositol 3-kinase delta” (Merck Sharp & Dohme Corp., priority 2014, dated 2018)

Legend:
[1] = molecular target: T1, PI3Kalpha (Homo sapiens, UniProt P42336); assay: HTRF PI3K biochemical assay, alpha isoform (selectivity versus delta); details: relative ratio PI3K-alpha IC50 value / PI3K-delta IC50 value
T1 construct: purchased Upstate; Millipore 14-602
Outline: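 Recombinant PI3Kα (0.5 nM) pre-incubated 15 min with compound, then reacted 1 h at room temperature with 5 μM PIP2 and 100 μM ATP. After EDTA stop, PIP3 measured by HTRF displacement of biotin-PIP3 from GST-GRP1 PH domain (665/620 nm). 10-point dose response; IC50 corrected using a PIP3 standard curve.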

[2] = molecular target: T2, PI3Kdelta (Homo sapiens, UniProt O00329); assay: HTRF PI3K biochemical assay, delta isoform; details: 0.3 nM enzyme, 100 uM ATP, 5 uM PIP2, form screened (Neutral or TFA salt) given per compound
T2 construct: purchased Upstate; Millipore 14-604
Outline: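 PI3Kδ at 0.3 nM with 100 uM ATP and 5 uM PIP2, 10-point 3-fold dilutions, 15 min enzyme–compound pre-incubation, then 1 h reaction at room temperature. PIP3 formation detected by HTRF displacement of biotin-PIP3 from GST-GRP1-PH (665/620 nm ratio). IC50 corrected using a PIP3 standard curve.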

T1 sequence (P42336 whole entry, canonical isoform): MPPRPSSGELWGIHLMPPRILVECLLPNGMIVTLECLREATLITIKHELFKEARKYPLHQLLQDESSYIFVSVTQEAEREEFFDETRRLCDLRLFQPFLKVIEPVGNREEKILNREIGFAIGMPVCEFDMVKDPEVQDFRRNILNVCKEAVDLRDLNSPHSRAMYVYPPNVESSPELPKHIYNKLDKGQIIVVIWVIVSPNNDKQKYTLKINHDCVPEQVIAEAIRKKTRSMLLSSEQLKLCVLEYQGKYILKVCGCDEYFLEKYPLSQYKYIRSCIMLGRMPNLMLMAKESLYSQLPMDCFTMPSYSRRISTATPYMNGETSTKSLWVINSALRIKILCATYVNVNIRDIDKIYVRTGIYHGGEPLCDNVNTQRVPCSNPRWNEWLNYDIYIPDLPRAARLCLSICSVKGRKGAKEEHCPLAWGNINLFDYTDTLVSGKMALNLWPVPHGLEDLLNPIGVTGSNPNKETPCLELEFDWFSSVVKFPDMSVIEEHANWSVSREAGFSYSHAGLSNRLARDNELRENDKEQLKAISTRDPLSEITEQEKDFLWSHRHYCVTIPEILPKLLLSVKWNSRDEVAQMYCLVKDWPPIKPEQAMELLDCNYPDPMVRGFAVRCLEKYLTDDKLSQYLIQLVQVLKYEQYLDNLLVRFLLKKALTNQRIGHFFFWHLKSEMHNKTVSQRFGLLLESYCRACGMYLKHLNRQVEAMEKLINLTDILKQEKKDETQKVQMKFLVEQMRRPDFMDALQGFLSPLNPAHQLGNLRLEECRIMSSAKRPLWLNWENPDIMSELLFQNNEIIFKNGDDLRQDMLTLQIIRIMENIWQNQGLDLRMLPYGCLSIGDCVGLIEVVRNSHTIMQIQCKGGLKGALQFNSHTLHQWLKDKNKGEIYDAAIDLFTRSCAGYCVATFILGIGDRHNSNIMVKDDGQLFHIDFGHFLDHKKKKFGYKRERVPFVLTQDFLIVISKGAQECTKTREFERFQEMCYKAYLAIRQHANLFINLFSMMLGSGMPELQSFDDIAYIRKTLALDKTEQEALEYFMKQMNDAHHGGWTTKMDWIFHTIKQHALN
T1 sequence (P27986 whole entry partner, canonical isoform): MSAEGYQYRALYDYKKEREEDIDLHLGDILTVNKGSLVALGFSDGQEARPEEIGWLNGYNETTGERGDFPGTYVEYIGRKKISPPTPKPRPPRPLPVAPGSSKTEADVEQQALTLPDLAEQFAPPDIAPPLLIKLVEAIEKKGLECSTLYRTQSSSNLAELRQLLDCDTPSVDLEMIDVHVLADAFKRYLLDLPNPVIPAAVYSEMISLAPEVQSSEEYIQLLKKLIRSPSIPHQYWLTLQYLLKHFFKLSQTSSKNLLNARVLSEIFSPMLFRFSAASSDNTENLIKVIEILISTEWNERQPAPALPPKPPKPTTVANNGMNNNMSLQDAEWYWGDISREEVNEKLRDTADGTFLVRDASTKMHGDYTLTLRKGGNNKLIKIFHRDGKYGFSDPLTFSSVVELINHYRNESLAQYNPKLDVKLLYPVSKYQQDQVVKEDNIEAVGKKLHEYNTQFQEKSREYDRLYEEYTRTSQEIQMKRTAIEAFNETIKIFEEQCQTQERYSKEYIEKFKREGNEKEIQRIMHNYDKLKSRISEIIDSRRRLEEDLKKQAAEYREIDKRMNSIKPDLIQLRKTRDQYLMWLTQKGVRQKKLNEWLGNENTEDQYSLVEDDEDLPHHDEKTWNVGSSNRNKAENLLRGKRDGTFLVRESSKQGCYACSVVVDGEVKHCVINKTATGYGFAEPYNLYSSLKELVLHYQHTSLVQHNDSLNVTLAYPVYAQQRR
T2 sequence (O00329 whole entry, canonical isoform): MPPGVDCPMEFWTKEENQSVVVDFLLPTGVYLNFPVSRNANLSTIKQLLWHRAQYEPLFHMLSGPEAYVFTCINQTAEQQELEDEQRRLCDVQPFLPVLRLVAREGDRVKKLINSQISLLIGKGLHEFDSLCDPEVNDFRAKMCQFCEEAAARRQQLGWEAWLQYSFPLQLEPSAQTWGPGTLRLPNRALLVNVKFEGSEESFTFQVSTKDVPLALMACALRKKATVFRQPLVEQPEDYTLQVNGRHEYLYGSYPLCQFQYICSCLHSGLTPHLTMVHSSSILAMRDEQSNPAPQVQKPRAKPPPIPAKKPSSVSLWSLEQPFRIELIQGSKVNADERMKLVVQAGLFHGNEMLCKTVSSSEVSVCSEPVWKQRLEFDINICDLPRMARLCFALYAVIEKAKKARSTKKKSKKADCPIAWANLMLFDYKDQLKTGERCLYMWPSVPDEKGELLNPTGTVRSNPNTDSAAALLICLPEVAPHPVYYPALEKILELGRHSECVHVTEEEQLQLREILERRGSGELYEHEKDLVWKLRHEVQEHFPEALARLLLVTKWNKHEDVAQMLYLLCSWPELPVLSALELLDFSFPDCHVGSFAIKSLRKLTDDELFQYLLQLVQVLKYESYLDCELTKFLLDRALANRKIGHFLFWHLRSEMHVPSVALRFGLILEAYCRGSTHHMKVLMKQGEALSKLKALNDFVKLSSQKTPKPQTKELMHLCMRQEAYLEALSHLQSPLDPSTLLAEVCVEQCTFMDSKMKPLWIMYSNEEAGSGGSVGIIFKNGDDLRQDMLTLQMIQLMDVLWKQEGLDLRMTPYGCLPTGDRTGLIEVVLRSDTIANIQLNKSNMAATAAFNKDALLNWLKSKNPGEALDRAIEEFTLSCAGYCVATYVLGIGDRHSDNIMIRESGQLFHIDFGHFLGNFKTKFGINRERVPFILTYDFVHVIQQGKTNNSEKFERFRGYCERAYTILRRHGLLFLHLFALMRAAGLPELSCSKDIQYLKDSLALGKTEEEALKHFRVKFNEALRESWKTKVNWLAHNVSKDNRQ
T2 sequence (P27986 whole entry partner, canonical isoform): as the sequence (P27986 whole entry partner, canonical isoform) above

Structure (SMILES)	Selectivity versus PI3Kalpha [1]	IC50 [2] [nM]
CCn1c(-c2cnc(C)nc2)nc2c(OC3CCc4nnc(C5CCC5)n4C3)ncnc21 (single isomer, unassigned) [Compound 1-36, (S or R)-6-{[3-cyclobutyl-5,6,7,8-tetrahydro[1,2,4]triazolo[4,3-a]pyridin-6-yl]oxy}-9-ethyl-8-(2-methylpyrimidin-5-yl)-9H-purine]	>10	1.1
CCn1c(-c2cnc(C)nc2)nc2c(NC3CCc4nnc(C(C)C)n4C3)ncnc21 (single isomer, unassigned) [Compound 1-5, (S or R)-9-ethyl-N-[3-(1-methylethyl)-5,6,7,8-tetrahydro[1,2,4]triazolo[4,3-a]pyridin-6-yl]-8-(2-methylpyrimidin-5-yl)-9H-purin-6-amine]	>10	1.1
CCn1c(-c2ccc(OC(F)(F)F)cc2)nc2c(NC3CCc4nnc(C5CC5)n4C3)ncnc21 (racemic) [Compound 1-16, (S and R)-N-(3-cyclopropyl-5,6,7,8-tetrahydro[1,2,4]triazolo[4,3-a]pyridin-6-yl)-9-ethyl-8-[4-(trifluoromethoxy)phenyl]-9H-purin-6-amine]	>10	3.9
CCn1c(-c2cnc(C)nc2)nc2c(NC3CCc4nnc(C5CC5)n4C3)ncnc21 (single isomer, unassigned) [Compound 1-2, (S or R)-N-(3-cyclopropyl-5,6,7,8-tetrahydro[1,2,4]triazolo[4,3-a]pyridin-6-yl)-9-ethyl-8-(2-methylpyrimidin-5-yl)-9H-purin-6-amine]	>10	65
CCn1c(-c2cnc(OC)c(Cl)c2)nc2c(NC3CCc4nnc(C(C)C)n4C3)ncnc21 (single isomer, unassigned) [Compound 1-22, (S or R)-8-(5-chloro-6-methoxypyridin-3-yl)-9-ethyl-N-[3-(1-methylethyl)-5,6,7,8-tetrahydro[1,2,4]triazolo[4,3-a]pyridin-6-yl]-9H-purin-6-amine]	>10	221
CCCn1nc(C(C)C)c2c1CCC(Nc1ncnc3c1nc(-c1cnc(C)nc1)n3CC)C2 (single isomer, unassigned) [Compound 2-10, (S or R)-9-ethyl-N-[3-(1-methylethyl)-1-propyl-4,5,6,7-tetrahydro-1H-indazol-5-yl]-8-(2-methylpyrimidin-5-yl)-9H-purin-6-amine]	>10	6.1
CCn1c(-c2cnc(C)nc2)nc2c(NC3CCc4c(c(C(C)C)nn4C(=O)OC(C)(C)C(F)(F)F)C3)ncnc21 (racemic) [Compound 2-20, (S and R)-2,2,2-trifluoro-1,1-dimethylethyl 5-{[9-ethyl-8-(2-methylpyrimidin-5-yl)-9H-purin-6-yl]amino}-3-(1-methylethyl)-4,5,6,7-tetrahydro-1H-indazole-1-carboxylate]	>10	2.6
CCn1c(-c2cnc(OC)c(F)c2)nc2c(NC3CCc4nnc(C5CC5)n4C3)ncnc21 (racemic) [Compound 1-13, (S and R)-N-(3-cyclopropyl-5,6,7,8-tetrahydro[1,2,4]triazolo[4,3-a]pyridin-6-yl)-9-ethyl-8-(5-fluoro-6-methoxypyridin-3-yl)-9H-purin-6-amine]	>10	1.1
CCn1c(-c2cnc(C)nc2)nc2c(OC3CCc4nnc(C5CCC5)n4C3)ncnc21 (single isomer, unassigned) [Compound 1-35, (S or R)-6-{[3-cyclobutyl-5,6,7,8-tetrahydro[1,2,4]triazolo[4,3-a]pyridin-6-yl]oxy}-9-ethyl-8-(2-methylpyrimidin-5-yl)-9H-purine]	>10	19
CCn1c(-c2ccc(C(F)(F)F)cc2)nc2c(NC3CCc4[nH]nc(C(C)C)c4C3)ncnc21 (single isomer, unassigned) [Compound 2-8, (S or R)-9-ethyl-N-[3-(1-methylethyl)-4,5,6,7-tetrahydro-1H-indazol-5-yl]-8-[4-(trifluoromethyl)phenyl]-9H-purin-6-amine]	>10	210
CCn1c(-c2cnc(C)nc2)nc2c(NC3CCc4[nH]nc(C(C)C)c4C3)ncnc21 (single isomer, unassigned) [Compound 2-4, (S or R)-9-ethyl-N-[3-(1-methylethyl)-4,5,6,7-tetrahydro-1H-indazol-5-yl]-8-(2-methylpyrimidin-5-yl)-9H-purin-6-amine]	>10	1.8

Continued, values first:

Selectivity versus PI3Kalpha [1]	IC50 [2] [nM]	Structure (SMILES)
>10	40	CCn1c(-c2cnc(C)nc2)nc2c(NC3CCc4nc(C(F)F)n(C5CC5)c4C3)ncnc21 (single isomer, unassigned) [Compound 5-11, (S or R)-N-[1-cyclopropyl-2-(difluoromethyl)-4,5,6,7-tetrahydro-1H-benzimidazol-6-yl]-9-ethyl-8-(2-methylpyrimidin-5-yl)-9H-purin-6-amine]
>10	21	CCc1nc2c(n1C1CC1)CC(Nc1ncnc3c1nc(-c1cnc(C)nc1)n3CC)CC2 (single isomer, unassigned) [Compound 5-8, (S or R)-N-(1-cyclopropyl-2-ethyl-4,5,6,7-tetrahydro-1H-benzimidazol-6-yl)-9-ethyl-8-(2-methylpyrimidin-5-yl)-9H-purin-6-amine]
>10	510	CCn1c(-c2cnc(C)nc2)nc2c(NC3Cc4c(ncn4C(C)C)C(C)C3)ncnc21 (single isomer, unassigned) [Compound 5-18, 9-ethyl-N-[(4(S or R), 6(S or R)-4-methyl-1-(1-methylethyl)-4,5,6,7-tetrahydro-1H-benzimidazol-6-yl]-8-(2-methylpyrimidin-5-yl)-9H-purin-6-amine]
>10	51	CCn1c(C(=O)NCC(F)(F)F)nc2c(NC3CCc4ncn(C5CC5)c4C3)ncnc21 (single isomer, unassigned) [Compound 5-9, (S or R)-6-[(1-cyclopropyl-4,5,6,7-tetrahydro-1H-benzimidazol-6-yl)amino]-9-ethyl-N-(2,2,2-trifluoroethyl)-9H-purine-8-carboxamide]
>10	230	CCn1c(-c2cnc(C)nc2)nc2c(NC3CCc4ncn([C@H]5C[C@@H](OC)C5)c4C3)ncnc21 (single isomer, unassigned) [Compound 5-14, (S or R)-9-ethyl-N-[1-(cis-3-methoxycyclobutyl)-4,5,6,7-tetrahydro-1H-benzimidazol-6-yl]-8-(2-methylpyrimidin-5-yl)-9H-purin-6-amine]
>10	3.3	CCn1c(-c2ccc(C(F)(F)F)nc2)nc2c(NC3CCc4ncn(C5CC5)c4C3)ncnc21 (single isomer, unassigned) [Compound 5-2, (S or R)-N-(1-cyclopropyl-4,5,6,7-tetrahydro-1H-benzimidazol-6-yl)-9-ethyl-8-[6-(trifluoromethyl)pyridin-3-yl]-9H-purin-6-amine]
